# Measured values: article PMC10739246 (ACS Bio & Med Chem Au, 2023)
# Like-named read-outs stand apart in the source and are kept apart here.
# Key:
# E. coli (W3110) = experiment: MIC, microdilution, E. coli W3110; type: cell-based, Escherichia coli
# [1] = tested on: norfloxacin-resistant clinical isolate of E. coli; experiment: MIC, microdilution, norfloxacin-resistant clinical isolate of E. coli; type: cell-based, Escherichia coli; settings: read-out: MIC E. coli (norfloxacin-resistant strain)
# P. aeruginosa (PAO1) = experiment: MIC, microdilution, P. aeruginosa PAO1; type: cell-based, Pseudomonas aeruginosa
# [2] = tested on: K. pneumoniae (ATCC 10031); experiment: MIC, K. pneumoniae ATCC 10031; type: cell-based, Klebsiella pneumoniae
# E. faecalis (ATCC 19433) = experiment: MIC, E. faecalis ATCC 19433; type: cell-based, Enterococcus faecalis
# [3] = tested on: S. aureus (ATCC 43300) MRSA; experiment: MIC, microdilution, MRSA ATCC 43300; type: cell-based, Staphylococcus aureus; settings: for MIC: norfloxacin-resistant strain
# [4] = tested on: M. tuberculosis (MC26020); experiment: microbe, parasite or virus in culture; type: cell-based, Mycobacterium tuberculosis; settings: for MIC: Mycobacterium tuberculosis, read-out: MIC M. tuberculosis (MC26020)
# S. aureus (CCUG1800T) = experiment: MIC, microdilution, S. aureus CCUG1800T; type: cell-based, Staphylococcus aureus
# E. coli [5] = experiment: microbe, parasite or virus in culture; settings: Escherichia coli, read-out: MICC (MIC of the test compound alone)
# E. coli [6] = tested on: E. coli
# B. subtilis DSM402 [7] = settings: Table 2; cells treated with 1x MIC
# [8] = tested on: MurG in B. subtilis TNVS175; experiment: MurG localization; type: cell-based, Bacillus subtilis; settings: 1x MIC; 30 min (vancomycin) or 1 h;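 also: normal MurG forms small membrane spots and peptidoglycan inhibition gives large clusters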
# B. subtilis DSM402 [9] = experiment: Peptidoglycan integrity assay (acetic acid/methanol fixation); settings: 1x MIC; 30 min (cell wall inhibitors) or 60 min
# [10] = tested on: cell wall biosynthesis in B. subtilis DSM402; experiment: Summary of cell wall synthesis experiments; type: cell-based, Bacillus subtilis
# MreB in B. subtilis MW10 = experiment: MreB mobility assay; type: cell-based, Bacillus subtilis; settings: B. subtilis MW10, 1 h of antibiotic exposure
# Description: MreB is an actin homologue that forms filamentous structures along the lateral axis of the cell. It moves along the length of the cells in a spiraling pattern thereby driving lateral peptidoglycan synthesis.[36],[37] MreB mobility is sensitive to inhibition of peptidoglycan synthesis and so far, every cell wall synthesis inhibitor we tested abolished MreB movement (see Figure S70 for examples).
# Expression of msfGFP-MreB was induced with 0.3% xylose. Pictures were taken after 1 h of antibiotic exposure. Two images of the same field of view were recorded 30 s apart and overlaid in ImageJ to visualize MreB mobility. A perfect overlap (yellow) indicates stalled MreB movement, while distinct red and green foci are indicative of MreB mobility. Scale bar 2 μm.
# Fig. S70: MreB motility in B. subtilis MW10 after treatment with different cell wall synthesis inhibitors. Expression of GFP-MreB was induced with 0.3% xylose. Cells were treated with 1x […]
# Two images of the same field of view were recorded 30 sec apart and overlaid in ImageJ to visualize MreB mobility. A perfect overlap (yellow) indicates stalled MreB movement while distinct red and green spots are indicative of MreB mobility. Scale bar 2 µm.
# B. subtilis DSM402 [11] = experiment: Bacterial cytological profiling (BCP) in B. subtilis DSM402; type: cell-based, Bacillus subtilis
# [12] = Escherichia coli, Gram-negative strain, average of duplicate experiments, read-out: MIC E. coli (W3110)
# [13] = Klebsiella pneumoniae, ATCC10031
# [14] = Enterococcus faecalis, ATCC19433
# [15] = Gram-negative strain, average of duplicate experiments, read-out: MIC E. coli (W3110)
# [16] = norfloxacin-resistant clinical isolate
# [17] = read-out: MIC S. aureus (CCUG1800T)
# [18] = interpretation of BCP in B. subtilis
structure (smiles),measurement,setting,value
CCn1cc(C(=O)O)c(=O)c2cc(F)c(N3CCN(C(=O)CNc4ccc(Br)cc4)CC3)cc21 [4b],MIC,E. coli (W3110); [12],30.1 µM
same,MIC,[1]; Escherichia coli,> 964 µM
same,MIC,"P. aeruginosa (PAO1); Pseudomonas aeruginosa, PAO1",723 µM
same,MIC,[2]; [13],> 964 µM
same,MIC,E. faecalis (ATCC 19433); [14],7.52 µM
same,MIC,[3]; Staphylococcus aureus,> 964 µM
same,MIC,[4],3.76 µM
same,MIC,"S. aureus (CCUG1800T); Staphylococcus aureus; Tab. S10, DNA gyrase side; strain not given, values equal S. aureus CCUG1800T of Table 1; read-out: MIC",1.88 µM
same,MIC,S. aureus (CCUG1800T); Staphylococcus aureus; read-out: MIC S. aureus (CCUG1800T),1.88 µM
CCn1cc(C(=O)O)c(=O)c2cc(F)c(N3CCN(C(=O)Cn4ccnc4)CC3)cc21 [8a],MIC,E. coli (W3110); [12],4.67 µM
same,MIC,"E. coli (W3110); Escherichia coli, Tab. S10, topoisomerase IV side, strain not given, values equal E. coli W3110 of Table 1, read-out: MIC",4.67 µM
same,MIC,[1]; Escherichia coli,74.9 µM
same,MIC,"P. aeruginosa (PAO1); Pseudomonas aeruginosa, PAO1",150 µM
same,MIC,[2]; [13],9.35 µM
same,MIC,E. faecalis (ATCC 19433); [14],14 µM
same,MIC,[3]; Staphylococcus aureus,299 µM
same,MIC,[4],2.33 µM
same,MIC,"S. aureus (CCUG1800T); Staphylococcus aureus, read-out: MIC S. aureus (CCUG1800T)",2.33 µM
CCn1cc(C(=O)O)c(=O)c2cc(F)c(N3CCN(CN4C(=O)C(=O)c5cc(C)ccc54)CC3)cc21 [20b],MIC,E. coli (W3110); [15],5.07 µM
same,MIC,[1]; [16],>1039.59 µM
same,MIC,P. aeruginosa (PAO1),16.24 µM
same,MIC,[2],3.04 µM
same,MIC,E. faecalis (ATCC 19433),6.09 µM
same,MIC,[3],259.89 µM
same,MIC M. tuberculosis (MC26020),[4],129.94 µM
same,MIC,S. aureus (CCUG1800T); [17],32.48 µM
CCn1cc(C(=O)O)c(=O)c2cc(F)c(N3CCN(CN4C(=O)C(=O)c5cc(OC)ccc54)CC3)cc21 [20c],MIC,E. coli (W3110); [15],4.91 µM
same,MIC,[1]; [16],1006.88 µM
same,MIC,P. aeruginosa (PAO1),62.93 µM
same,MIC,[2],503.44 µM
same,MIC,E. faecalis (ATCC 19433),251.72 µM
same,fold more active than norfloxacin,[3],6.3 fold
same,MIC,[3],15.73 µM
same,MIC M. tuberculosis (MC26020),[4],>1006.88 µM
same,MIC,S. aureus (CCUG1800T); [17],31.46 µM
"CC(C)(N)[C@H](NC(=O)c1ccc(C#CC#C[C@@H]2C[C@H]2CO)cc1)C(=O)NO [ACHN-975, reference compound]",MIC,E. coli [5],0.5 mg/L
same,FICM (MICMcheckerboard/MICM),E. coli [6]; mupirocin alone 64 µg/mL,0.0469
same,FICI (fractional inhibitory concentration index),"E. coli [6]; with mupirocin, FICC+FICM",0.2969
"N[C@@H]1CON=C1O [D-Cyc, D-cycloserine]","μM (concentration used, 1x MIC)",B. subtilis DSM402 [7],293.85 µM
same,protein localization MurG,[8],patchy
same,PG integrity,B. subtilis DSM402 [9],compromised
same,CWB inhibited?,[10],yes
same,MreB mobility,MreB in B. subtilis MW10,static with foci
"CCCCCCCCCC(=O)N[C@@H](Cc1c[nH]c2ccccc12)C(=O)N[C@H](CC(N)=O)C(=O)N[C@@H](CC(=O)O)C(=O)N[C@@H]1C(=O)NCC(=O)N[C@@H](CCCN)C(=O)N[C@@H](CC(=O)O)C(=O)N[C@H](C)C(=O)N[C@@H](CC(=O)O)C(=O)NCC(=O)N[C@H](CO)C(=O)N[C@@H]([C@H](C)CC(=O)O)C(=O)N[C@@H](CC(=O)c2ccccc2N)C(=O)O[C@@H]1C [Dap, daptomycin, reference compound]",DAPI,"B. subtilis DSM402 [11]; 1x MIC, 1 h, DNA condensation",regular
same,phase contrast,"B. subtilis DSM402 [11]; 1x MIC, 1 h, indicates cell lysis",dark
same,FM4-64,"B. subtilis DSM402 [11]; 1x MIC, 1 h, membrane stain",patchy
same,gyrase inhibition,B. subtilis DSM402 [11]; [18],no
same,membrane damage,B. subtilis DSM402 [11]; [18],yes
